Key:
[1] = xn = mol fraction of the nth substance listed; settings: 318.15 K; 101 kPa; Liquid; Vibrating tube method; x1 = 0.9388
[2] = excess molar enthalpy (molar enthalpy of mixing); xn = mol fraction of the nth substance listed; settings: 303.15 K, 101 kPa, Liquid, Calvet calorimetry
[3] = molar heat capacity at constant pressure; xn = mol fraction of the nth substance listed; settings: 101 kPa, Liquid, Small sample (50 mg) DSC

CCOS(=O)(=O)[O-].CCn1cc[n+](C)c1 [1-ethyl-3-methylimidazolium ethyl sulfate] + CCO
Settings	mass density [kg/m3]
[1]	1215.5

[2]
Settings	excess molar enthalpy [kcal/mol]
x1 = 0.0486	0.125
x1 = 0.1198	0.26
x1 = 0.1961	0.302
x1 = 0.2952	0.315
x1 = 0.3917	0.297
x1 = 0.4937	0.276
x1 = 0.6087	0.22
x1 = 0.7017	0.171
x1 = 0.7963	0.118
x1 = 0.8774	0.0731

molar heat capacity at constant pressure [J/K/mol], [3]
Settings	293.15 K	298.15 K	303.15 K	308.15 K	313.15 K	318.15 K
x1 = 0.0157	114.9	116.8	118.6	120.7	122.8	125
x1 = 0.0523	124.6	126.2	127.9	129.7	131.6	133.6
x1 = 0.0978	137.1	138.5	139.9	141.6	143.2	145
x1 = 0.1944	163.7	165	166.3	167.7	169.2	170.9
x1 = 0.3073	194.6	195.9	197.2	198.8	200.4	202.2
x1 = 0.4109	223.4	224.8	226.3	227.9	229.6	231.5
x1 = 0.5084	250.8	252.3	254	255.8	257.6	259.7
x1 = 0.5927	274.9	276.5	278.3	280.3	282.3	284.5
x1 = 0.6995	305.4	307.2	309	311.1	313.3	315.6
x1 = 0.7883	331.1	333	335	337.2	339.5	342
x1 = 0.8797	357.4	359.4	361.6	364	366.5	369.1
x1 = 0.9388	374.4	376.5	378.8	381.3	383.9	386.7
